Laboratory results from PubChem BioAssay AID1259407 (Chemical Carcinogenesis Research Information System (CCRIS), 2018).
The source made the active and inactive calls. How the calls were made is not given here.

Test system: CCRIS mutagenicity, Ames/micronucleus/aberration tests
Assay: CCRIS mutagenicity studies

For COc1ccc(N)cc1, the mutagenic call (Test System: AMES SALMONELLA TYPHIMURIUM, Strain/Indicator: TA1535, Metabolic Activation: RAT, LIVER, S-9, Method: STANDARD PLATE) was “inactive; negative”, the mutagenic call (Test System: AMES SALMONELLA TYPHIMURIUM, Strain/Indicator: TA1537, Metabolic Activation: HAMSTER, LIVER, S-9, AROCLOR 1254, Method: STANDARD PLATE) was “inactive; negative” and the mutagenic call (Test System: AMES SALMONELLA TYPHIMURIUM, Strain/Indicator: TA1537, Metabolic Activation: HAMSTER, LIVER, S-9, Method: STANDARD PLATE) was “inactive; negative”. The mutagenic call (Test System: AMES SALMONELLA TYPHIMURIUM, Strain/Indicator: TA1537, Metabolic Activation: MOUSE, LIVER, S-9, AROCLOR 1254, Method: STANDARD PLATE) was “inactive; negative”, the mutagenic call (Test System: AMES SALMONELLA TYPHIMURIUM, Strain/Indicator: TA1537, Metabolic Activation: NONE, Method: PREINCUBATION) was “inactive; negative” and the mutagenic call (Test System: AMES SALMONELLA TYPHIMURIUM, Strain/Indicator: TA1537, Metabolic Activation: NONE, Method: STANDARD PLATE) was “inactive; negative”. For the same compound, the mutagenic call (Test System: AMES SALMONELLA TYPHIMURIUM, Strain/Indicator: TA1537, Metabolic Activation: RAT LIVER S-9, PHENOBARBITAL AND BETA-NAPHTHOFLAVONE, Method: PREINCUBATION) was “inactive; negative”, the mutagenic call (Test System: AMES SALMONELLA TYPHIMURIUM, Strain/Indicator: TA1537, Metabolic Activation: RAT, LIVER, S-9, AROCLOR 1254, Method: STANDARD PLATE) was “inactive; negative” and the mutagenic call (Test System: AMES SALMONELLA TYPHIMURIUM, Strain/Indicator: TA1537, Metabolic Activation: RAT, LIVER, S-9, Method: STANDARD PLATE) was “inactive; negative”. For the same compound, the mutagenic call (Test System: AMES SALMONELLA TYPHIMURIUM, Strain/Indicator: TA1538, Metabolic Activation: HAMSTER, LIVER, S-9, AROCLOR 1254, Method: STANDARD PLATE) was “inactive; negative”, the mutagenic call (Test System: AMES SALMONELLA TYPHIMURIUM, Strain/Indicator: TA1538, Metabolic Activation: HAMSTER, LIVER, S-9, Method: STANDARD PLATE) was “inactive; negative” and the mutagenic call (Test System: AMES SALMONELLA TYPHIMURIUM, Strain/Indicator: TA1538, Metabolic Activation: MOUSE, LIVER, S-9, AROCLOR 1254, Method: STANDARD PLATE) was “inactive; negative”. The mutagenic call (Test System: AMES SALMONELLA TYPHIMURIUM, Strain/Indicator: TA1538, Metabolic Activation: MOUSE, LIVER, S-9, Method: STANDARD PLATE) was “inactive; negative”, the mutagenic call (Test System: AMES SALMONELLA TYPHIMURIUM, Strain/Indicator: TA1538, Metabolic Activation: NONE, Method: STANDARD PLATE) was “inactive; negative” and the mutagenic call (Test System: AMES SALMONELLA TYPHIMURIUM, Strain/Indicator: TA1538, Metabolic Activation: RAT, LIVER, S-9, AROCLOR 1254, Method: STANDARD PLATE) was “inactive; negative”. The mutagenic call (Test System: AMES SALMONELLA TYPHIMURIUM, Strain/Indicator: TA1538, Metabolic Activation: RAT, LIVER, S-9, Method: STANDARD PLATE) was “inactive; negative”, the mutagenic call (Test System: AMES SALMONELLA TYPHIMURIUM, Strain/Indicator: TA2638, Metabolic Activation: NONE, Method: STANDARD PLATE) was “inactive; negative” and the mutagenic call (Test System: AMES SALMONELLA TYPHIMURIUM, Strain/Indicator: YG1029, Metabolic Activation: HAMSTER, LIVER, S-9, Method: PREINCUBATION) was “active; positive”. The mutagenic call (Test System: AMES SALMONELLA TYPHIMURIUM, Strain/Indicator: YG1029, Metabolic Activation: NONE, Method: PREINCUBATION) was “active; positive”, the mutagenic call (Test System: AMES SALMONELLA TYPHIMURIUM, Strain/Indicator: YG1029, Metabolic Activation: RAT, SEMINAL VESICLE, MICROSOMES, Method: PREINCUBATION) was “active; positive” and the mutagenic call (Test System: E. COLI, Strain/Indicator: WP2 (PKM101), Metabolic Activation: NONE, Method: STANDARD PLATE) was “inactive; negative”. The mutagenic call (Test System: E. COLI, Strain/Indicator: WP2 UVRA (PKM101), Metabolic Activation: NONE, Method: STANDARD PLATE) was “active; positive”, the mutagenic call (Test System: E. COLI, Strain/Indicator: WP2 UVRA, Metabolic Activation: HAMSTER, LIVER, S-9, AROCLOR 1254, Method: STANDARD PLATE) was “inactive; negative” and the mutagenic call (Test System: E. COLI, Strain/Indicator: WP2 UVRA, Metabolic Activation: HAMSTER, LIVER, S-9, Method: STANDARD PLATE) was “inactive; negative”. The mutagenic call (Test System: E. COLI, Strain/Indicator: WP2 UVRA, Metabolic Activation: MOUSE, LIVER, S-9, AROCLOR 1254, Method: STANDARD PLATE) was “inactive; negative”, the mutagenic call (Test System: E. COLI, Strain/Indicator: WP2 UVRA, Metabolic Activation: MOUSE, LIVER, S-9, Method: STANDARD PLATE) was “inactive; negative” and the mutagenic call (Test System: E. COLI, Strain/Indicator: WP2 UVRA, Metabolic Activation: NONE, Method: STANDARD PLATE) was “inactive; negative”. For the same compound, the mutagenic call (Test System: E. COLI, Strain/Indicator: WP2 UVRA, Metabolic Activation: RAT, LIVER, S-9, AROCLOR 1254, Method: STANDARD PLATE) was “inactive; negative”, the mutagenic call (Test System: E. COLI, Strain/Indicator: WP2 UVRA, Metabolic Activation: RAT, LIVER, S-9, Method: STANDARD PLATE) was “inactive; negative” and the mutagenic call (Test System: E.COLI, Strain/Indicator: WP2UVRA/PKM101, Metabolic Activation: RAT LIVER S-9, PHENOBARBITAL AND BETA-NAPHTHOFLAVONE, Method: PREINCUBATION) was “inactive; negative”. For the same compound, the mutagenic call (Test System: E.COLI, Strain/Indicator: WP2UVRA, Metabolic Activation: NONE, Method: PREINCUBATION) was “inactive; negative”, the mutagenic call (Test System: MOUSE LYMPHOMA, Strain/Indicator: L5178Y (TK+/TK-), Metabolic Activation: NONE, Method: SUSPENSION/PLATE) was “active; positive” and the mutagenic call (Test System: MOUSE LYMPHOMA, Strain/Indicator: L5178Y (TK+/TK-), Metabolic Activation: RAT, LIVER, S-9, AROCLOR 1254, Method: SUSPENSION/PLATE) was “active; positive”.
